In ChEMBL document CHEMBL3046754, “New brassinosteroid analogs having nitrogenated functionalities at C3 to provide more information about the brassinosteroidreceptor interaction” (2004):

Legend:
Assay type in all cases: functional
Oryza sativa [1] = assay: Growth regulating activity in Oryza sativa (rice) Bahia cultivar seedlings assessed as interior angle between leaf lamina of second leaf and its leaf sheath at 0.05 ug/plant applied onto second lamina joint of plant sheath measured after 2 days by Oryza sativa lamina inclination test
Oryza sativa [2] = assay: Growth regulating activity in Oryza sativa (rice) Bahia cultivar seedlings assessed as interior angle between leaf lamina of second leaf and its leaf sheath at 1 ug/plant applied onto second lamina joint of plant sheath measured after 2 days by Oryza sativa lamina inclination test
Oryza sativa [3] = assay: Growth regulating activity in Oryza sativa (rice) Bahia cultivar seedlings assessed as interior angle between leaf lamina of second leaf and its leaf sheath at 0.1 ug/plant applied onto second lamina joint of plant sheath measured after 2 days by Oryza sativa lamina inclination test
Oryza sativa [4] = assay: Growth regulating activity in Oryza sativa (rice) Bahia cultivar seedlings assessed as interior angle between leaf lamina of second leaf and its leaf sheath at 0.5 ug/plant applied onto second lamina joint of plant sheath measured after 2 days by Oryza sativa lamina inclination test
Oryza sativa [5] = assay: Growth regulating activity in Oryza sativa (rice) Bahia cultivar seedlings assessed as interior angle between leaf lamina of second leaf and its leaf sheath at 0.01 ug/plant applied onto second lamina joint of plant sheath measured after 2 days by Oryza sativa lamina inclination test
Oryza sativa [6] = assay: Growth regulating activity in Oryza sativa (rice) Bahia cultivar seedlings assessed as interior angle between leaf lamina of second leaf and its leaf sheath at 0.02 ug/plant applied onto second lamina joint of plant sheath measured after 2 days by Oryza sativa lamina inclination test

| Compound | Activity (Oryza sativa [1]) | Activity (Oryza sativa [2]) | Activity (Oryza sativa [3]) | Activity (Oryza sativa [4]) | Activity (Oryza sativa [5]) | Activity (Oryza sativa [6]) |
| --- | --- | --- | --- | --- | --- | --- |
| CC[C@@H](C(C)C)[C@@H](O)[C@H](O)[C@@H](C)[C@H]1CC[C@H]2[C@@H]3CC(=O)[C@H]4C[C@H](N=[N+]=[N-])CC[C@]4(C)[C@H]3CC[C@]12C | 24 degree | 75 degree | 30 degree | 64 degree | 17 degree |  |
| CC[C@@H](C(C)C)[C@@H](O)[C@H](O)[C@@H](C)[C@H]1CC[C@H]2[C@@H]3COC(=O)[C@H]4C[C@H](N)CC[C@]4(C)[C@H]3CC[C@]12C |  | 55 degree | 16 degree | 31 degree |  |  |
| CC[C@@H](C(C)C)[C@H](O)[C@@H](O)[C@@H](C)[C@H]1CC[C@H]2[C@@H]3COC(=O)[C@H]4C[C@H](N=[N+]=[N-])CC[C@]4(C)[C@H]3CC[C@]12C |  | 48 degree |  | 17 degree |  |  |
| CC[C@@H](C(C)C)[C@@H](O)[C@H](O)[C@@H](C)[C@H]1CC[C@H]2[C@@H]3CC(=O)[C@H]4C[C@H](O)CC[C@]4(C)[C@H]3CC[C@]12C | 65 degree | 85 degree | 59 degree | 76 degree | 46 degree |  |
| CC[C@@H](C(C)C)[C@H](O)[C@@H](O)[C@@H](C)[C@H]1CC[C@H]2[C@@H]3CC(=O)[C@H]4C[C@H](N=[N+]=[N-])CC[C@]4(C)[C@H]3CC[C@]12C |  | 1 degree |  |  |  |  |
| CC[C@@H](C(C)C)[C@@H](O)[C@H](O)[C@@H](C)[C@H]1CC[C@H]2[C@@H]3CC(=O)[C@H]4C[C@H](N)CC[C@]4(C)[C@H]3CC[C@]12C |  | 23 degree |  |  |  |  |
| CC[C@@H](C(C)C)[C@H](O)[C@@H](O)[C@@H](C)[C@H]1CC[C@H]2[C@@H]3CC(=O)[C@H]4C[C@H](N)CC[C@]4(C)[C@H]3CC[C@]12C |  | 3 degree |  |  |  |  |
| CC[C@@H](C(C)C)[C@@H](O)[C@H](O)[C@@H](C)[C@H]1CC[C@H]2[C@@H]3COC(=O)[C@H]4C[C@H](N=[N+]=[N-])CC[C@]4(C)[C@H]3CC[C@]12C | 74 degree | 106 degree | 86 degree | 94 degree | 37 degree | 44 degree |
| CC[C@@H](C(C)C)[C@H](O)[C@@H](O)[C@@H](C)[C@H]1CC[C@H]2[C@@H]3COC(=O)[C@H]4C[C@H](N)CC[C@]4(C)[C@H]3CC[C@]12C |  | 5 degree |  |  |  |  |
